Laboratory results reported in patent publication US20260265262A1, “CDK2 INHIBITORS AND METHODS OF USING THE SAME” (Cedilla Therapeutics, Inc., priority 2022, published 2026).
Where two headings read alike, the source gives them in different places.

Key:
CDK2/Cyclin E1 = CDK2/Cyclin E1 (Homo sapiens, UniProt P24941); test: ADP-Glo Luminescent Kinase Assay (CDK2/E1-37C); format: biochemical; conditions: 0.18 nM CDK2/Cyclin E1, 100 μM ATP, 1.5 μM Histone H1, 37° C., 60 min pre-incubation
Procedure, shortened: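 Human CDK2/Cyclin E1 preincubated with inhibitor 60 min at 37 °C, then reacted 90 min at 37 °C with final 0.18 nM enzyme, 100 μM ATP, 1.5 μM Histone H1 in HEPES pH 7.5 buffer. ADP formed read by ADP-Glo luminescence; IC50 from four-parameter fit.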

Kuramochi cells = test: IncuCyte cell proliferation assay; format: cell-based
Procedure, shortened: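 Kuramochi cells expressing mApple-H2B were treated with a 10-point, ½-log dilution series (top 20 μM). Fluorescent nuclei were counted by IncuCyte imaging at 0 and 72 h. The fold change in cell count was normalized to DMSO wells and fitted to dose-response curves to give […].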

[1] = read-out: ADPGLO (CDK2/E1-37C): IC50
[2] = Kuramochi cells labeled with mApple-H2B, cell count 0 to 72 hours, 20 μM top concentration, read-out: IncuCyte Kuramochi RB-WT: IC50

SMILES | IC50 (CDK2/Cyclin E1; [1]) | IC50 (Kuramochi cells; [2]) | IC50 (CDK2/Cyclin E1; ADPGLO (CDK2/E1-37C): IC50 (μM)) | IC50 (Kuramochi cells; read-out: IncuCyte Kuramochi RB-WT: IC50 (μM))
COC(=O)c1ccc([C@@H](COCC23CCC(CC2)OC3)NC(=O)C2CN(C(=O)c3cnn(Cc4ccc(C#N)cc4)c3)CC23CN(C(=O)C2(C(F)(F)F)CC2)C3)cc1 (stereo partly shown) [Example I-20] | 5 to 10 µM | > 20 µM | – | –
CC1(C)C[C@@H]1C(=O)N1CC2(CN(C(=O)c3cncs3)C[C@H]2C(=O)N2CCN(CC3CCCCC3)C(CC(=O)O)C2)C1 (stereo partly drawn) [Example I-6, 2-(1-(cyclohexylmethyl)-4-((S)-2-((S)-2,2-dimethylcyclopropane-1-carbonyl)-6-(thiazole-5-carbonyl)-2,6-diazaspiro[3.4]octane-8-carbonyl)piperazin-2-yl)acetic acid] | > 10 µM | > 20 µM | – | –
COC(=O)CC1CN(C(=O)[C@@H]2CN(C(=O)c3cncs3)CC23CN(C(=O)[C@H]2CC2(C)C)C3)CCN1CC1CCCCC1 (stereo partly shown) [Example I-21] | > 10 µM | > 20 µM | – | –
COC(=O)c1ccc(C2CCN(C(=O)[C@@H](NC(=O)[C@@H]3CN(C(=O)c4cnn(Cc5ccc(C(F)(F)F)cc5)c4)CC34CN(C(=O)C3(C(F)(F)F)CC3)C4)[C@@H](C)OCC34CCC(CC3)OC4)CC2)cc1 [Example I-13] | < 0.5 µM | 0.5 to 5 µM | – | –
N#Cc1ccc(Cn2cc(C(=O)N3CC(C(=O)N[C@H](COCC45CCC(CC4)OC5)c4ccc(C(=O)O)cc4)C4(C3)CN(C(=O)C3(C(F)(F)F)CC3)C4)cn2)cc1 (stereo partly shown) [Example I-19] | > 10 µM | > 20 µM | – | –
COP(=O)(CCNC(=O)[C@@H](NC(=O)[C@@H]1CN(C(=O)c2cnn(Cc3ccccc3)c2)CC12CN(C(=O)[C@H]1CC1(C)C)C2)[C@@H](C)OCC1CCCCC1)OC [Example I-27] | – | – | < 0.5 µM | 0.5 to 5 µM
C[C@@H](OCC12CCC(CC1)OC2)[C@@H](COC1CCC(c2ccc(C(=O)O)cc2)CC1)NC(=O)[C@@H]1CN(C(=O)c2cnn(Cc3ccc(C(F)(F)F)cc3)c2)CC12CN(C(=O)C1(C(F)(F)F)CC1)C2 (stereo partly drawn) [Example I-86, 4-(4-((2R,3R)-3-(2-oxabicyclo[2.2.2]octan-4-ylmethoxy)-2-((S)-6-(1-(4-(trifluoromethyl)benzyl)-1H-pyrazole-4-carbonyl)-2-(1-(trifluoromethyl)cyclopropanecarbonyl)-2,6-diazaspiro[3.4]octane-8-carboxamido)butoxy)cyclohexyl)benzoic acid] | 0.5 to 5 µM | > 20 µM | – | –
COC(=O)c1ccccc1C1CCN(C(=O)[C@@H](NC(=O)[C@@H]2CN(C(=O)c3cnn(Cc4ccc(C(F)(F)F)cc4)c3)CC23CN(C(=O)C2(C(F)(F)F)CC2)C3)[C@@H](C)OCC23CCC(CC2)OC3)CC1 [Example I-11, methyl 2-(1-(O-((2-oxabicyclo[2.2.2]octan-4-yl)methyl)-N—((S)-6-(1-(4-(trifluoromethyl)benzyl)-1H-pyrazole-4-carbonyl)-2-(1-(trifluoromethyl)cyclopropane-1-carbonyl)-2,6-diazaspiro[3.4]octane-8-carbonyl)-L-threonyl)piperidin-4-yl)benzoate] | < 0.5 µM | 0.5 to 5 µM | – | –
COC(=O)C1CCN(C(=O)[C@@H](NC(=O)[C@@H]2CN(C(=O)c3cnn(Cc4ccccc4)c3)CC23CN(C(=O)[C@H]2CC2(C)C)C3)[C@@H](C)OCC2CCCCC2)CC1 [Example I-17] | < 0.5 µM | < 0.5 µM | – | –

The next lines start with results.

IC50 (CDK2/Cyclin E1; [1]) | SMILES | IC50 (Kuramochi cells; [2]) | IC50 (CDK2/Cyclin E1; ADPGLO (CDK2/E1-37C): IC50 (μM)) | IC50 (Kuramochi cells; read-out: IncuCyte Kuramochi RB-WT: IC50 (μM))
0.5 to 5 µM | C[C@@H](OCC12CCC(CC1)OC2)[C@H](NC(=O)[C@H]1CN(C(=O)c2cnc(O)cn2)CC12CN(C(=O)C1(C(F)(F)F)CC1)C2)C(=O)N1CCC(c2ccc(C(=O)O)c(C(F)(F)F)c2)CC1 (single isomer, unassigned) [I-89 2nd, 4-(1-(O-((2-oxabicyclo[2.2.2]octan-4-yl)methyl)-N-(6-(5-hydroxypyrazine-2-carbonyl)-2-(1-(trifluoromethyl)cyclopropane-1-carbonyl)-2,6-diazaspiro[3.4]octane-8-carbonyl)-L-threonyl)piperidin-4-yl)-2-(trifluoromethyl)benzoic acid] | > 20 µM | – | –
5 to 10 µM | CCOC(=O)CN(CC1CCCCC1)[C@H]1CCCN(C(=O)[C@@H]2CN(C(=O)c3cncs3)CC23CN(C(=O)[C@H]2CC2(C)C)C3)C1 [Example I-74] | > 20 µM | – | –
0.5 to 5 µM | C[C@@H](OCC1(C(F)(F)F)CC1)[C@H](NC(=O)[C@@H]1CN(C(=O)c2cnn(Cc3ccc(C(F)(F)F)cc3)c2)CC12CN(C(=O)C1(C(F)(F)F)CC1)C2)C(=O)N1CCC(c2nccs2)CC1 [Example I-80, (S)—N-((2S,3R)-1-oxo-1-(4-(thiazol-2-yl)piperidin-1-yl)-3-((1-(trifluoromethyl)cyclopropyl)methoxy)butan-2-yl)-6-(1-(4-(trifluoromethyl)benzyl)-1H-pyrazole-4-carbonyl)-2-(1-(trifluoromethyl)cyclopropane-1-carbonyl)-2,6-diazaspiro[3.4]octane-8-carboxamide] | 0.5 to 5 µM | – | –
< 0.5 µM | COC(=O)c1ccc(N2CCN(C(=O)[C@@H](NC(=O)[C@@H]3CN(C(=O)c4cnn(Cc5ccccc5)c4)CC34CN(C(=O)[C@H]3CC3(C)C)C4)[C@@H](C)OCC3CCCCC3)CC2)cc1 [Example I-31] | < 0.5 µM | – | –
5 to 10 µM | CNC(=O)[C@@H](NC(=O)[C@@H]1CN(C(=O)c2cncs2)CC12CN(CC1CCCO1)C2)[C@@H](C)OCC12CCC(CC1)OC2 (stereo partly shown) [Example I-48] | > 20 µM | – | –
< 0.5 µM | C[C@@H](OCC1CCCCC1)[C@H](NC(=O)[C@@H]1CN(C(=O)c2cnn(CC3CCCCC3)c2)CC12CN(C(=O)[C@H]1CC1(C)C)C2)C(=O)N1CCC(c2ccc(C(=O)O)cc2)CC1 [Example I-30, 4-(1-(O-(cyclohexylmethyl)-N—((S)-6-(1-(cyclohexylmethyl)-1H-pyrazole-4-carbonyl)-2-((S)-2,2-dimethylcyclopropane-1-carbonyl)-2,6-diazaspiro[3.4]octane-8-carbonyl)-L-threonyl)piperidin-4-yl)benzoic acid] | 0.5 to 5 µM | – | –
< 0.5 µM | C[C@@H](OCC1CCCCC1)[C@H](NC(=O)[C@@H]1CN(C(=O)c2cnn(Cc3ccccc3)c2)CC12CN(C(=O)[C@H]1CC1(C)C)C2)C(=O)N1CCCC[C@H]1C(=O)O [Example I-36, (S)-1-(N—((S)-6-(1-benzyl-1H-pyrazole-4-carbonyl)-2-((S)-2,2-dimethylcyclopropane-1-carbonyl)-2,6-diazaspiro[3.4]octane-8-carbonyl)-O-(cyclohexylmethyl)-L-threonyl)piperidine-2-carboxylic acid] | > 20 µM | – | –
< 0.5 µM | C[C@@H](OCC1CCOCC1)[C@H](NC(=O)[C@@H]1CN(C(=O)c2cnc(O)cn2)CC12CN(C(=O)C1(C(F)(F)F)CC1)C2)C(=O)N1CCC(C(F)(F)F)CC1 [Example I-78, (S)-6-(5-hydroxypyrazine-2-carbonyl)-N-((2S,3R)-1-oxo-3-((tetrahydro-2H-pyran-4-yl)methoxy)-1-(4-(trifluoromethyl)piperidin-1-yl)butan-2-yl)-2-(1-(trifluoromethyl)cyclopropane-1-carbonyl)-2,6-diazaspiro[3.4]octane-8-carboxamide] | > 20 µM | – | –
< 0.5 µM | C[C@@H](OCC12CCC(CC1)OC2)[C@H](NC(=O)[C@@H]1CN(C(=O)c2cnn(Cc3ccc(C(F)(F)F)cc3)c2)CC12CN(C(=O)C1(C(F)(F)F)CC1)C2)C(=O)N1CCC(c2cc(F)c(C(=O)O)c(F)c2)CC1 [Example I-94] | > 20 µM | – | –
< 0.5 µM | C[C@@H](OCC1CCOCC1)[C@H](NC(=O)[C@@H]1CN(C(=O)c2cnn(Cc3ccc(C(F)(F)F)cc3)c2)CC12CN(C(=O)C1(C(F)(F)F)CC1)C2)C(=O)N1CCC(c2ccc(C(=O)O)cc2)CC1 [I-64 1st, 4-(1-(O-((tetrahydro-2H-pyran-4-yl)methyl)-N—((S)-6-(1-(4-(trifluoromethyl)benzyl)-1H-pyrazole-4-carbonyl)-2-(1-(trifluoromethyl)cyclopropane-1-carbonyl)-2,6-diazaspiro[3.4]octane-8-carbonyl)-L-threonyl)piperidin-4-yl)benzoic acid] | > 20 µM | – | –
< 0.5 µM | C[C@@H](OCC1CCCCC1)[C@H](NC(=O)[C@@H]1CN(C(=O)c2cnn(Cc3ccccc3)c2)CC12CN(C(=O)[C@H]1CC1(C)C)C2)C(=O)N1CCN(c2ccc(C(=O)O)cc2)CC1 [Example I-28] | 0.5 to 5 µM | – | –
< 0.5 µM | COc1ccc(S(=O)(=O)NC(=O)[C@@H](NC(=O)[C@@H]2CN(C(=O)c3cnn(Cc4ccccc4)c3)CC23CN(C(=O)[C@H]2CC2(C)C)C3)[C@@H](C)OCC2CCCCC2)cc1 [Example I-22] | 0.5 to 5 µM | – | –
> 10 µM | CC1(C)C[C@@H]1C(=O)N1CC2(CN(C(=O)c3cncs3)C[C@H]2C(=O)N2CCC[C@@H](N(CC(=O)O)CC3CCCCC3)C2)C1 [Example I-71] | > 20 µM | – | –
< 0.5 µM | C[C@@H](OCC12CCC(CC1)OC2)[C@H](NC(=O)[C@@H]1CN(C(=O)c2cnn(Cc3ccccc3C(=O)OC(C)(C)C)c2)CC12CN(C(=O)C1(C(F)(F)F)CC1)C2)C(=O)N1CCN(C(=O)OC(C)(C)C)CC1 [Example I-108] | 0.5 to 5 µM | – | –
